Values after ≈ are worked out from the molar mass of the structure shown. Active and inactive are the calls of the source. The calls are words filed in the database; no cut-off is given here.
What was measured:
MCF7/6 = assay: Antiinvasive activity in human MCF7/6 cells assessed as Cmin for progressive occupation of chicken precultured heart tissue fragments at 0.01 to 10 umol/L after 8 days by chick heart invasion assay; assay type: functional, cell-based
SK-OV-3 [1] = assay: Antiinvasive activity in human in SKOV3 cells assessed as reduction of amount of cells present on filter at 1 umol/L after 24 hrs by matrigel invasion assay (reference value: 100%); assay type: functional; parameters: scale not given: the % may be the effect or the level left
SK-OV-3 [2] = assay: Antiinvasive activity in human in SKOV3 cells assessed as reduction of amount of cells present on filter at 10 umol/L after 24 hrs by matrigel invasion assay (reference value: 100%); assay type: functional; parameters: scale not given: the % may be the effect or the level left
[3] = Antiinvasive activity in human in BLM cells assessed as reduction of amount of cells present on filter at 0.1 umol/L after 24 hrs by matrigel invasion assay (reference value: 100%); assay type: functional; parameters: scale not given: the % may be the effect or the level left
[4] = Antiinvasive activity in human in BLM cells assessed as reduction of amount of cells present on filter at 1 umol/L after 24 hrs by matrigel invasion assay (reference value: 100%); assay type: functional; parameters: scale not given: the % may be the effect or the level left
[5] = Antiinvasive activity in human in BLM cells assessed as reduction of amount of cells present on filter at 10 umol/L after 24 hrs by matrigel invasion assay (reference value: 100%); assay type: functional; parameters: scale not given: the % may be the effect or the level left
[6] = Antiinvasive activity in human in BLM cells assessed as reduction of amount of cells present on filter at 100 umol/L after 24 hrs by matrigel invasion assay (reference value: 100%); assay type: functional; parameters: scale not given: the % may be the effect or the level left
[7] = Aqueous solubility of the compound in simulated gastric fluid at 200 umol/L; assay type: physicochemical
[8] = Half life of the compound in simulated gastric fluid at 1 umol/L; assay type: ADME
[9] = Half life in human blood at 1 umol/L; assay type: ADME, tissue-based
[10] = Protein binding in human plasma at 10 umol/L; assay type: ADME, cell-free; settings: read-out: PPB (converted)
[11] = Protein binding in human plasma assessed as recovery at 10 umol/L; assay type: ADME, cell-free; settings: read-out: Drug recovery
CYP3A4 = CYP3A4 (Homo sapiens, UniProt P08684); assay: Inhibition of CYP3A4 (unknown origin) at 10 umol/L; assay type: ADME
[12] = Intrinsic clearance in human liver S9 fraction at 0.1 umol/L; assay type: ADME, subcellular; settings: read-out: CLH
[13] = Permeability across apical to basolateral side of human Caco2 cells at 10 umol/L at pH 7.4; assay type: ADME, cell-based; settings: Caco-2, pH 7.4, read-out: permeability
[14] = Permeability across basolateral to apical side of human Caco2 cells assessed as compound recovery at 10 umol/L at pH 7.4; assay type: ADME, cell-based; settings: Caco-2, pH 7.4, read-out: Drug recovery
hERG [15] = target: T1, hERG (Homo sapiens, UniProt Q12809); assay: Inhibition of human ERG assessed as reduction of tail current at 1 umol/L
hERG [16] = target: T1, hERG; assay: Inhibition of human ERG assessed as reduction of tail current at 10 umol/L
Homo sapiens = species: Homo sapiens; assay: Displacement of [3H]-quinuclydinyl benzylate from muscarinic receptor (unknown origin) at 10 umol/L
[17] = Toxicity in human HepG2 cells assessed as cell viability at 10 umol/L; assay type: cell-based; settings: read-out: Activity
Mus musculus [18] = assay: Toxicity in Swiss nu/nu mouse assessed as histological anomalies in liver at 1.6 to 160 mg/kg, ip administered three times a week for two-week period measured on day 15; assay type: organism-based; settings: in vivo
Mus musculus [19] = assay: Toxicity in Swiss nu/nu mouse assessed as histological anomalies in kidney at 1.6 to 160 mg/kg, ip administered three times a week for two-week period measured on day 15; assay type: organism-based; settings: in vivo
Mus musculus [20] = assay: Toxicity in Swiss nu/nu mouse assessed as histological anomalies in spleen at 1.6 to 160 mg/kg, ip administered three times a week for two-week period measured on day 15; assay type: organism-based; settings: in vivo
Mus musculus [21] = assay: Toxicity in Swiss nu/nu mouse assessed as hematological anomalies by measuring WBC count at 1.6 mg/kg, ip administered three times a week for two-week period measured on day 15 (reference value: 2420 +/- 782 /microL); assay type: organism-based; settings: in vivo
Mus musculus [22] = assay: Toxicity in Swiss nu/nu mouse assessed as hematological anomalies by measuring WBC count at 16 mg/kg, ip administered three times a week for two-week period measured on day 15 (reference value: 2420 +/- 782 /microL); assay type: organism-based; settings: in vivo
Mus musculus [23] = assay: Toxicity in Swiss nu/nu mouse assessed as hematological anomalies by measuring AST level at 1.6 mg/kg, ip administered three times a week for two-week period measured on day 15 (reference value: 254.2 +/- 144.6 IU/L); assay type: organism-based; settings: in vivo
Mus musculus [24] = assay: Toxicity in Swiss nu/nu mouse assessed as hematological anomalies by measuring AST level at 160 mg/kg, ip administered three times a week for two-week period measured on day 15 (reference value: 254.2 +/- 144.6 IU/L); assay type: organism-based; settings: in vivo
Mus musculus [25] = assay: Toxicity in Swiss nu/nu mouse assessed as hematological anomalies by measuring ALT level at 1.6 mg/kg, ip administered three times a week for two-week period measured on day 15 (reference value: 29.6 +/- 5.6 IU/L); assay type: organism-based; settings: in vivo
Mus musculus [26] = assay: Toxicity in Swiss nu/nu mouse assessed as hematological anomalies by measuring ALT level at 16 mg/kg, ip administered three times a week for two-week period measured on day 15 (reference value: 29.6 +/- 5.6 IU/L); assay type: organism-based; settings: in vivo
Mus musculus [27] = assay: Toxicity in Swiss nu/nu mouse assessed as hematological anomalies by measuring creatinine level at 1.6 mg/kg, ip administered three times a week for two-week period measured on day 15 (reference value: 0.29 +/- 0.02 mg/dL); assay type: organism-based; settings: in vivo
[28] = Antimetastasis activity against human MCF7/6 cells xenografted in Swiss nu/nu mouse assessed as increase of survival time at 160 mg/kg, ip administered thrice a week relative to control; assay type: functional
Mus musculus [29] = assay: Toxicity in human MCF7/6 cells xenografted Swiss nu/nu mouse assessed as macroscopic metastases at 160 mg/kg, ip administered thrice a week measured after 3 months; assay type: organism-based; settings: in vivo, 2191.5 h
[30] = Cytotoxicity against human MCF7/6 cells assessed as reduction of cellular protein content at 0.01 to 100 umol/L after 6 days by SRB assay; assay type: cell-based; settings: mcf7/6, 144 h
MCF10 = assay: Cytotoxicity against human MCF10 cells assessed as reduction of mitochondrial activity at 0.01 to 100 umol/L after 6 days by MTT assay; assay type: cell-based; settings: mcf10, 144 h
MDA-MB-231 = assay: Cytotoxicity against human MDA-MB-231 cells expressing GFP-Luc assessed as reduction of mitochondrial activity at 0.01 to 100 umol/L after 6 days by MTT assay; assay type: cell-based; settings: mda-mb-231, 144 h
[31] = Cytotoxicity against human BLM cells assessed as reduction of mitochondrial activity at > 10 umol/L after 24 hrs by MTT assay; assay type: cell-based
Tubulin (Sus scrofa) = Tubulin (Sus scrofa) (UniProt P02554+P02550); assay: Inhibition of porcine brain tubulin polymerization assessed as microtubule assembly at 1 umol/L after 15 mins by DAPI staining
Chain of Tubulin (Sus scrofa) (P02550 whole entry, looked up): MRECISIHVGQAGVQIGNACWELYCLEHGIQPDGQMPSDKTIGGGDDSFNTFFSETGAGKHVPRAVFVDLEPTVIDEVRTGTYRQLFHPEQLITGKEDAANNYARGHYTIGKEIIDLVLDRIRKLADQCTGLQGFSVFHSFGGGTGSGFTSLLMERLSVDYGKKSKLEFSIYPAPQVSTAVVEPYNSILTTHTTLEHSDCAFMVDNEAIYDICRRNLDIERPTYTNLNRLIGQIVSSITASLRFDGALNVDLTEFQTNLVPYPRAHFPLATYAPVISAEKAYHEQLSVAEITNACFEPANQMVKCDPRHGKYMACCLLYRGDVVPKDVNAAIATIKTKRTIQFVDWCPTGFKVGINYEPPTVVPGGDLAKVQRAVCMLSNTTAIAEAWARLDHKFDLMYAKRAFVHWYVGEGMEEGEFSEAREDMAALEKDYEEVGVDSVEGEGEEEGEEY
Chain of Tubulin (Sus scrofa) (P02554 whole entry, looked up): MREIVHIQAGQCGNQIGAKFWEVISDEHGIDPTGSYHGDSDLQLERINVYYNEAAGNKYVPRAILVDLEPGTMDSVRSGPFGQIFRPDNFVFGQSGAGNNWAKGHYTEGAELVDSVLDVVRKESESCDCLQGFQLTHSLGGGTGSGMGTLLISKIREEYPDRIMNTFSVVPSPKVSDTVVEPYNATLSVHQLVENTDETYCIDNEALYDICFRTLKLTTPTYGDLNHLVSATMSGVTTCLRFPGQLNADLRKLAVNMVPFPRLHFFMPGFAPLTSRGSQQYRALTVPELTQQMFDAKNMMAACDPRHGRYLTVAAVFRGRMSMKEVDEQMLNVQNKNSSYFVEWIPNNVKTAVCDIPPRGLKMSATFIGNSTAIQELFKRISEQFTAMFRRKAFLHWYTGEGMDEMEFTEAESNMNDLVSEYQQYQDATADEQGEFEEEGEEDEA

T1 sequence (Q12809 whole entry): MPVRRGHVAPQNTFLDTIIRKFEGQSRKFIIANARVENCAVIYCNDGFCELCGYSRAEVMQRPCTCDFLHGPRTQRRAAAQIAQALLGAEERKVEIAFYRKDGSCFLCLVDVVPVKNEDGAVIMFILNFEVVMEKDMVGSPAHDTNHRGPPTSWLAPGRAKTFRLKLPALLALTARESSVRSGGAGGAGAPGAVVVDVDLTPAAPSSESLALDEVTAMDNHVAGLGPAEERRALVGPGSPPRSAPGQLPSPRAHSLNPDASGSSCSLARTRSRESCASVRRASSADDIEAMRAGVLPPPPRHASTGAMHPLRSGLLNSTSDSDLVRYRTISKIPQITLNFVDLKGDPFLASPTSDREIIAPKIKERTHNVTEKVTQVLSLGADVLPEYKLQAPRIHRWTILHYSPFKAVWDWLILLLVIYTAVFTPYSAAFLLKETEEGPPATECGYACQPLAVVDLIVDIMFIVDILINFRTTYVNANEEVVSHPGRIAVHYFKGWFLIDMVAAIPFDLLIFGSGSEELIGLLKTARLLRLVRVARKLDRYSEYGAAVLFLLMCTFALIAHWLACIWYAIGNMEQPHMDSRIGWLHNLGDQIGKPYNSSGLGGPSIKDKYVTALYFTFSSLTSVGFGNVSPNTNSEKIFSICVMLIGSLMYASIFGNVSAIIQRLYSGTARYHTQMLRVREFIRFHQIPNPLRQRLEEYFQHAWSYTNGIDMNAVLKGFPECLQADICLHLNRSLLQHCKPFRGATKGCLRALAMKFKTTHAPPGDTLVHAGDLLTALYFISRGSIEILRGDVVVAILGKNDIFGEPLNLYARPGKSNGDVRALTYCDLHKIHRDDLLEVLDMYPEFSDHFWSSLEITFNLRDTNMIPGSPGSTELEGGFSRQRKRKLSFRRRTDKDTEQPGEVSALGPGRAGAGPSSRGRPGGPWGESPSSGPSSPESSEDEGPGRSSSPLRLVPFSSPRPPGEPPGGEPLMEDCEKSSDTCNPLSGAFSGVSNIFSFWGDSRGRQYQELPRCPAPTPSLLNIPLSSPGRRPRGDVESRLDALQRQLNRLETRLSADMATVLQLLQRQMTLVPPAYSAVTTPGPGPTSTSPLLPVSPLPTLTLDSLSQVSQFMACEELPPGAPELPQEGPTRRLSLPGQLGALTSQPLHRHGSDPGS
Chain of CYP3A4 (P08684 whole entry): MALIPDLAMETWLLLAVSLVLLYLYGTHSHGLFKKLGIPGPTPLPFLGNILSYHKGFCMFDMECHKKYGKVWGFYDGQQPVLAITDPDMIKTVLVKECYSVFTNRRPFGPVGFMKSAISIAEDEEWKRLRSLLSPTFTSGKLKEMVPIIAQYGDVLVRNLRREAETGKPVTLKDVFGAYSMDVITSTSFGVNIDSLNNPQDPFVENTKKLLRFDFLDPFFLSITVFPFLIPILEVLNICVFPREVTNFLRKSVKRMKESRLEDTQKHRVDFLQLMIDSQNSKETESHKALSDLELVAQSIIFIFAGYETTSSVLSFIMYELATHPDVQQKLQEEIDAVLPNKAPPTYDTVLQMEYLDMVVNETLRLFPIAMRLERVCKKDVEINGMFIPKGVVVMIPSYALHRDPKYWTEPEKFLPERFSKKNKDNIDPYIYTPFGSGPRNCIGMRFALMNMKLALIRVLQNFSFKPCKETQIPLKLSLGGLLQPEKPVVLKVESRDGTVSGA

COc1cc(C(=O)/C=C/c2ccc(F)cc2)cc(OC)c1OC
Activity (MCF7/6): Active | Activity (SK-OV-3 [1]): 18% | Activity (SK-OV-3 [2]): 12% | Activity [3]: 20% | Activity [4]: 33% | Activity [5]: 7% | Activity [6]: 2% | solubility at 200 µM [7]: 9.1 µM (≈ 2.88 µg/mL) | half-life at 1 µM [8]: > 60 min | half-life at 1 µM [9]: 10 min | fraction unbound at 10 µM [10]: 0.01 | recovery at 10 µM [11]: 90% | inhibition at 10 µM (CYP3A4): 27.2% | microsomal CLint at 0.1 µM [12]: 57.3 µL/min/mg | Papp A→B at 10 µM [13]: 10.4 ×10⁻⁶ cm/s | recovery at 10 µM [14]: 66% | inhibition at 1 µM (hERG [15]): 9.8% | inhibition at 10 µM (hERG [16]): 28.3% | inhibition (Homo sapiens): -5.1% | viability at 10 µM [17]: 44.3% | Activity (Mus musculus [18]): Non-toxic | Activity (Mus musculus [19]): Non-toxic | Activity (Mus musculus [20]): Non-toxic | Activity (Mus musculus [21]): 4400 µL⁻¹ | Activity (Mus musculus [22]): 5960 µL⁻¹ | Activity (Mus musculus [23]): 135.5 IU/L | Activity (Mus musculus [24]): 207.8 IU/L | Activity (Mus musculus [25]): 30.5 IU/L | Activity (Mus musculus [26]): 28.1 IU/L | Activity (Mus musculus [27]): 0.22 mg/dL | Survival [28]: 34 days | Activity (Mus musculus [29]): Non-toxic | Activity [30]: Non-toxic | Activity (MCF10): Non-toxic | Activity (MDA-MB-231): Non-toxic | Activity [31]: Toxic | inhibition (Tubulin (Sus scrofa)): -0.8%
